{
  "source": "patent US20240091115A1",
  "about": "“Oral Care Compositions and Methods of Use” (Colgate-Palmolive Company, priority 2019, published 2024)",
  "key": {"S. mutans biofilms": {"tested_on": "S. mutans biofilms", "experiment": "Seahorse XFe Extracellular Flux Analyzer, bacterial metabolism (OCR/ECAR) in S. mutans biofilm", "assay_type": "cell-based", "conditions": "CBD and arginine slurries", "experimental": "(§1) Samples with varying amounts of cannabidiol (CBD) are assessed for their effects on cellular metabolism with and without various source of zinc. Using the Seahorse XF^e Extracellular Flux Analyzer, biofilm samples are grown for 48 hrs. […] The biofilms are harvested for culture. Diluted biofilm and toothpaste slurry are loaded to each well. Glycolysis—Extracellular Acidification Rate (ECAR) and Mitochondrial Respiration—Oxygen Consumption Rate (OCR) is measured for 25-50 cycles (˜360 minutes). […] The “CBD Oil” is 5% CBD (by wt. of the CBD Oil) in Hemp seed oil."}, "mixed species biofilm": {"tested_on": "mixed species biofilm", "experiment": "Seahorse XFe Extracellular Flux Analyzer, bacterial metabolism (OCR/ECAR) in mixed species biofilm", "assay_type": "cell-based", "conditions": "oxygen consumption rate", "experimental": "as §1\nWhere the “OCR” is oxygen consumption rate units as measured using the Seahorse XF^e Extracellular Flux Analyzer.: […]"}},
  "data": [
    {"smiles": "N=C(N)NCCC[C@H](N)C(=O)O", "note": "[1% Arg, arginine]", "values": [
      {"measurement": "OCR Value (p mole/min)", "setting": "S. mutans biofilms; Table 4, oxygen consumption rate, untreated 1449.50", "value": 518.58, "unit": "p mole/min"},
      {"measurement": "ECR Value (mpH/min)", "setting": "S. mutans biofilms; Table 5, extracellular acidification rate, untreated 701.2", "value": 518.6, "unit": "mpH/min"}
    ]},
    {"smiles": "[F][Sn][F]", "note": "[0.2% by wt. Stannous Fluoride, Stannous Fluoride]", "values": [
      {"measurement": "Average (OCR) (p mole/min)", "setting": "mixed species biofilm; Table 3, mixed species biofilm, CBD and stannous fluoride slurries, untreated 11489.9", "value": 10440.7, "unit": "p mole/min"}
    ]},
    {"smiles": "CC(O)C(=O)[O-].CC(O)C(=O)[O-].[Zn+2]", "note": "(stereo not shown) [1.5% Zinc Lactate, Zinc Lactate]", "values": [
      {"measurement": "Average (OCR) (p mole/min)", "setting": "mixed species biofilm; Table 1, mixed biofilm, CBD and zinc lactate, untreated 25,669.50", "value": "21,900.63 p mole/min"}
    ]}
  ]
}
